Test system: L929 cells
Assay type: cell-based
Procedure: A direct overlay method which has been adopted by the FDA for MPS registration was used to evaluate the cytotoxicity profile of the PQ1 formulations. In this method, previously-soaked contact lenses (in 100 ml of the solutions to simulate overnight soak) were directly overlayed on L929 cells. The cytotoxicity result was evaluated by scoring each culture under a microscope on a relative scale of 0-4.

Polyquaternium-1 [30K PQ1]
cytotoxicity score: 2

From US7999064B2 (Abbott Medical Optics Inc., priority 2009, dated 2011)
